Results taken from ChEMBL document CHEMBL4330082, “Tailoring a lead-like compound targeting multiple G-quadruplex structures” (Eur J Med Chem, 2019).
pKd: −log10 of the molar value. Activity calls are given as the source filed them. The calls are words filed in the database; no cut-off is given here.

Columns and labels:
Quadruplex DNA [1] = experiment: Binding affinity to synthetic telomeric 26 G-quadruplex DNA assessed as residual binding at 60 uM after 4 mins by UV-Vis spectrophotometric analysis relative to control; format: nucleic-acid assay
Quadruplex DNA [2] = experiment: Binding affinity to synthetic c-Kit1 G-quadruplex DNA assessed as residual binding at 60 uM after 4 mins by UV-Vis spectrophotometric analysis relative to control; format: nucleic-acid assay
Quadruplex DNA [3] = experiment: Binding affinity to synthetic c-Kit2 G-quadruplex DNA assessed as residual binding at 60 uM after 4 mins by UV-Vis spectrophotometric analysis relative to control; format: nucleic-acid assay
Quadruplex DNA [4] = experiment: Binding affinity to human TERT1 G-quadruplex DNA assessed as residual binding at 60 uM after 4 mins by UV-Vis spectrophotometric analysis relative to control; format: nucleic-acid assay
dsDNA [5] = experiment: Binding affinity to synthetic 27-mer duplex DNA assessed as residual binding at 60 uM after 4 mins by UV-Vis spectrophotometric analysis relative to control; format: nucleic-acid assay
Homo sapiens [6] = organism: Homo sapiens; experiment: Induction of telomeric DNA damage in human BJeH-LT cells expressing human TERT assessed as increase in gamma-histone H2AX levels at 0.5 uM after 24 hrs by immunofluorescence assay; format: functional, cell-based
Quadruplex DNA [7] = experiment: Binding affinity to synthetic cMYC G-quadruplex DNA assessed as residual binding at 60 uM after 4 mins by UV-Vis spectrophotometric analysis relative to control; format: nucleic-acid assay
Homo sapiens [8] = organism: Homo sapiens; experiment: Induction of telomeric DNA damage in human BJeH-LT cells expressing human TERT assessed as increase in TIF positive cells at 0.5 uM after 24 hrs by immunofluorescence assay; format: functional, cell-based
HeLa [9] = experiment: Inhibition of colony formation in human HeLa cells at 2 uM after 10 days by methylene blue staining-based assay; format: functional, cell-based
BJ = experiment: Cytotoxicity against in human BJ cells expressing human TERT assessed as reduction in cell viability at 1 to 2 uM incubated for 6 days by trypan blue exclusion assay; format: cell-based; conditions: 144 h
Quadruplex DNA [10] = experiment: Induction of conformational changes in synthetic telomeric 26 G-quadruplex DNA at 1 to 5 equivalents after 5 mins by CD spectra analysis; format: nucleic-acid assay
Quadruplex DNA [11] = experiment: Induction of conformational changes in synthetic cMYC G-quadruplex DNA at 1 to 5 equivalents after 5 mins by CD spectra analysis; format: nucleic-acid assay
dsDNA [12] = experiment: Induction of conformational changes in synthetic 27-mer duplex DNA at 1 to 5 equivalents after 5 mins by CD spectra analysis; format: nucleic-acid assay
Quadruplex DNA [13] = experiment: Binding affinity to synthetic telomeric 26 G-quadruplex DNA assessed as melting temperature compound:DNA ratio of 5:1 after 5 mins by CD spectra analysis (reference value: 49 degreeC); format: nucleic-acid assay
Quadruplex DNA [14] = experiment: Binding affinity to synthetic cMYC G-quadruplex DNA assessed as melting temperature compound:DNA ratio of 5:1 after 5 mins by CD spectra analysis (reference value: 82 degreeC); format: nucleic-acid assay
dsDNA [15] = experiment: Binding affinity to synthetic 27-mer duplex DNA assessed as melting temperature compound:DNA ratio of 5:1 after 5 mins by CD spectra analysis (reference value: 75 degreeC); format: nucleic-acid assay
Quadruplex DNA [16] = experiment: Binding affinity to synthetic modified telomeric 24 G-quadruplex DNA assessed as melting temperature compound:DNA ratio of 4:1 by 1H NMR spectroscopic analysis; format: nucleic-acid assay
Quadruplex DNA [17] = experiment: Binding affinity to synthetic MYC 22 G-quadruplex DNA assessed as melting temperature compound:DNA ratio of 4:1 by 1H NMR spectroscopic analysis; format: nucleic-acid assay
dsDNA [18] = experiment: Binding affinity to synthetic 12-mer duplex DNA assessed as melting temperature compound:DNA ratio of 4:1 by 1H NMR spectroscopic analysis; format: nucleic-acid assay
Quadruplex DNA [19] = experiment: Binding affinity to Cy5-fluorescently labeled synthetic MYC 22 G-quadruplex DNA by microscale thermophoresis assay; format: nucleic-acid assay
Quadruplex DNA [20] = experiment: Binding affinity to Cy5-fluorescently labeled synthetic Telomeric 26 G-quadruplex DNA by microscale thermophoresis assay; format: nucleic-acid assay
HeLa [21] = experiment: Inhibition of colony formation in human HeLa cells at 0.5 to 2 uM after 10 days by methylene blue staining-based assay; format: functional

| Structure (SMILES) | Activity (Quadruplex DNA [1]) [%] | Activity (Quadruplex DNA [2]) [%] | Activity (Quadruplex DNA [3]) [%] | Activity (Quadruplex DNA [4]) [%] | Activity (dsDNA [5]) [%] | Activity (Homo sapiens [6]) | Activity (Quadruplex DNA [7]) [%] | Activity (Homo sapiens [8]) | inhibition (HeLa [9]) | further results |
| --- | --- | --- | --- | --- | --- | --- | --- | --- | --- | --- |
| O=C1c2ccccc2C(=O)c2c1oc1c3c(ccc21)OCN(Cc1cccnc1)C3 | 79 | 90 | 88 | 89 | 28 | inactive | 94 | inactive | Active |  |
| O=C1c2ccccc2C(=O)c2c1oc1c3c(ccc21)OCN(Cc1ccccc1)C3 | 80 | 76 | 83 | 78 | 12 | Active | 87 | Active | Active |  |
| O=C1c2ccccc2C(=O)c2c1oc1c3c(ccc21)OCN(CC1CCS(=O)(=O)C1)C3 (stereo not given) | 75 | 72 | 68 | 76 | 16 | inactive | 73 | inactive | Active |  |
| O=C1c2ccccc2C(=O)c2c1oc1c3c(ccc21)OCN(CCCn1ccnc1)C3 | 80 | 85 | 91 | 82 | 46 | Active | 94 | Active | Active |  |
| O=C1c2ccccc2C(=O)c2c1oc1c3c(ccc21)OCN(Cc1ccco1)C3 | 86 | 90 | 92 | 91 | 2 | Active | 93 | Active | Active |  |
| CC(c1ccccc1)N1COc2ccc3c4c(oc3c2C1)C(=O)c1ccccc1C4=O (stereo not given) | 80 | 78 | 80 | 82 | 0 | Active | 84 | Active |  | Activity (BJ): Non-Toxic; Activity (Quadruplex DNA [10]): Active; Activity (Quadruplex DNA [11]): Active; Activity (dsDNA [12]): inactive; Tm (Quadruplex DNA [13]): 50 °C; Tm (Quadruplex DNA [14]): > 90 °C; Tm (dsDNA [15]): 76 °C; Activity (Quadruplex DNA [16]): Active; Activity (Quadruplex DNA [17]): Active; Activity (dsDNA [18]): inactive; pKd (Quadruplex DNA [19]): 4.89; pKd (Quadruplex DNA [20]): 4.59 |
| O=C1c2ccccc2C(=O)c2c1oc1c3c(ccc21)OCN(CCC1=CCCCC1)C3 | 73 | 55 | 67 | 73 | 16 | Active | 84 | Active | Active |  |
| O=C1c2ccccc2C(=O)c2c1oc1c3c(ccc21)OCN(CCCN1CCOCC1)C3 | 80 | 77 | 84 | 92 | 33 | Active | 89 | Active | Active |  |
| CC(=O)c1c(C)oc2c1c1c(c3ccccc32)OCN(CCCN2CCOCC2)C1 | 76 | 75 | 70 | 78 | 22 | inactive | 74 | inactive | Active |  |
| O=C1c2ccccc2C(=O)c2c1oc1c3c(ccc21)OCN(C1CCCCC1)C3 | 86 | 70 | 82 | 74 | 18 | Active | 86 | Active |  | MED (HeLa [21]): 2 µM; Activity (BJ): Toxic; Activity (Quadruplex DNA [10]): Active; Activity (Quadruplex DNA [11]): Active; Activity (dsDNA [12]): inactive; Tm (Quadruplex DNA [13]): 49 °C; Tm (Quadruplex DNA [14]): > 90 °C; Tm (dsDNA [15]): 76 °C; Activity (Quadruplex DNA [16]): Active; Activity (Quadruplex DNA [17]): Active; Activity (dsDNA [18]): inactive |
| O=C1c2ccccc2C(=O)c2c1oc1c3c(ccc21)OCN(CC1CCCO1)C3 (stereo not given) | 78 | 88 | 83 | 87 | 20 | Active | 90 | Active | Active |  |
